Results: patent US4981854A, “A-aryl-4-quinolone-3-carboxylic acids” (Bayer Aktiengesellschaft, priority 1985, dated 1991)
In brackets after ≈: the same amount, converted by molar mass.

Assays:
Experiment in all cases: Minimum inhibitory concentration, agar dilution test (Denley Multipoint inoculator, Isosensitest medium)
Assay type in all cases: cell-based
[1] = test system: Proteus vulg. 1017
Description: (§1) The MIC values of some of the compounds according to the invention are given in the following table. | Minimum inhibitory concentration mcg/ml^(x) | ^(x) Agar dilution test/Denley Multipoint inoculator Isosensitest | medium

[2] = test system: E. coli 455/7; settings: Escherichia coli
Description: as §1

[3] = test system: Pseudomonas aerug. W.
Description: as §1

[4] = test system: Staphylococcus aur. 1756
Description: as §1

[5] = test system: E. coli 4418; settings: Escherichia coli
Description: as §1

[6] = test system: E. coli Neum.; settings: Escherichia coli
Description: as §1

[7] = test system: Klebsiella pneum. 63
Description: as §1

[8] = test system: Klebsiella pneum. 8085
Description: as §1

[9] = test system: Klebsiella spec. 6179
Description: as §1

[10] = test system: Staphylococcus aur. 133
Description: as §1

[11] = test system: Streptococcus faecalis 27101; settings: Enterococcus faecalis
Description: as §1

| Compound | MIC [1] | MIC [2] | MIC [3] | MIC [4] | MIC [5] | MIC [6] | MIC [7] | MIC [8] | MIC [9] | MIC [10] | MIC [11] |
| --- | --- | --- | --- | --- | --- | --- | --- | --- | --- | --- | --- |
| CN1CCN(c2c(F)cc3c(=O)c(C(=O)O)cn(-c4ccc(F)cc4)c3c2F)CC1 [Example 1, 6,8-Difluoro-1,4-dihydro-4-oxo-1-(4-fluorophenyl)-7-(4-methyl-1-piperazinyl)-quinoline-3-carboxylic acid] | 0.5 µg/mL (≈ 1.2 µM) | 16 µg/mL (≈ 38.3 µM) | 8 µg/mL (≈ 19.2 µM) | 0.5 µg/mL (≈ 1.2 µM) | 0.25 µg/mL (≈ 0.599 µM) | 0.125 µg/mL (≈ 0.299 µM) | 0.25 µg/mL (≈ 0.599 µM) | 0.125 µg/mL (≈ 0.299 µM) | 0.5 µg/mL (≈ 1.2 µM) | 0.5 µg/mL (≈ 1.2 µM) | 4 µg/mL (≈ 9.58 µM) |
| CC1CN(c2c(F)cc3c(=O)c(C(=O)O)cn(-c4ccc(F)cc4)c3c2F)CCN1 (centres unmarked) [Example 2, 6,8-Difluoro-1,4-dihydro-4-oxo-1-(4-fluorophenyl)-7-(3-methyl-1-piperazinyl)-quinoline-3-carboxylic acid] | 0.25 µg/mL (≈ 0.599 µM) | 8 µg/mL (≈ 19.2 µM) | 4 µg/mL (≈ 9.58 µM) | 0.5 µg/mL (≈ 1.2 µM) | 0.125 µg/mL (≈ 0.299 µM) | ~0.015 µg/mL (≈ 0.0359 µM) | 0.125 µg/mL (≈ 0.299 µM) | 0.06 µg/mL (≈ 0.144 µM) | 0.25 µg/mL (≈ 0.599 µM) | 0.5 µg/mL (≈ 1.2 µM) | 4 µg/mL (≈ 9.58 µM) |
| O=C(O)c1cn(-c2ccc(F)cc2)c2c(F)c(N3CCNCC3)c(F)cc2c1=O [Example 3, 6,8-Difluoro-1,4-dihydro-4-oxo-1-(4-fluorophenyl)-7-(1-piperazinyl)-quinoline-3-carboxylic acid] | 0.03 µg/mL (≈ 0.0744 µM) | 8 µg/mL (≈ 19.8 µM) | 1 µg/mL (≈ 2.48 µM) | 0.25 µg/mL (≈ 0.62 µM) | 0.06 µg/mL (≈ 0.149 µM) | ~0.015 µg/mL (≈ 0.0372 µM) | 0.06 µg/mL (≈ 0.149 µM) | ~0.015 µg/mL (≈ 0.0372 µM) | 0.06 µg/mL (≈ 0.149 µM) | 0.25 µg/mL (≈ 0.62 µM) | 4 µg/mL (≈ 9.92 µM) |
| CCn1cc(C(=O)O)c(=O)c2cc(F)c(N3CCNCC3)cc21 [Norfloxacin, reference compound] | 0.06 µg/mL (≈ 0.188 µM) | 8 µg/mL (≈ 25.1 µM) | 2 µg/mL (≈ 6.26 µM) | 1 µg/mL (≈ 3.13 µM) | 0.125 µg/mL (≈ 0.391 µM) | 0.125 µg/mL (≈ 0.391 µM) | 0.25 µg/mL (≈ 0.783 µM) | 0.25 µg/mL (≈ 0.783 µM) | 2 µg/mL (≈ 6.26 µM) | 1 µg/mL (≈ 3.13 µM) | 1 µg/mL (≈ 3.13 µM) |
